Measurements reported in US8623862B2, “Derivatives of N-[(1H-pyrazol-1-yl)aryl]-1H-indole or 1H-indazole-3-carboxamide, preparation thereof and applications thereof in therapeutics” (Sanofi, priority 2011, dated 2014).
Counter-ions that a name gives are not always drawn. Like-named read-outs stand apart in the source and are kept apart here.

System: platelet aggregation
Test: Inhibition of platelet aggregation in vitro (rat blood);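 as to Inhibition of platelet aggregation in vitro (rat blood) in μM: aggregation induced by ADP added as 4 µL of a 250 µM solution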
Format: cell-based
Protocol: The measurements of platelet aggregation are performed at 37° C. in glass tubes (Chrono-Log—Kordia aggregometer).
Inhibition of Platelet Aggregation In Vitro (Rat Blood)
The blood is taken from male rats of the Sprague-Dawley strain, weighing 250-300 g.
The platelet-rich plasma (PRP) is obtained by centrifugation of the blood at 300 g for 5 minutes, and the measurements of platelet aggregation are performed as described above.
The results are calculated using the area under the curve of absorbance measured for 6 minutes, and expressed as percentage inhibition.

[1] = rat platelet-rich plasma, ADP-induced aggregation, area under the curve of absorbance for 6 minutes, read-out: Inhibition of platelet aggregation in vitro (rat blood);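 as to Inhibition of platelet aggregation in vitro (rat blood) in μM: aggregation induced by ADP added as 4 µL of a 250 µM solution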
[2] = rat blood, in vitro, read-out: Inhibition of platelet aggregation in vitro (rat blood);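 as to Inhibition of platelet aggregation in vitro (rat blood) in μM: aggregation induced by ADP added as 4 µL of a 250 µM solution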

IC50 [1]	IC50 [2]	SMILES	other results
0.61 µM		CCCC(=O)c1cnn(-c2ccc(NC(=O)c3cn(CC(=O)N4CCC(NC)C4)c4ccc(C)cc34)cc2)c1C (centres unmarked) [Compound 250]	
	0.18 µM	CCCC(=O)c1cnn(-c2ccc(NC(=O)c3cn(CC(=O)N4CCN(C)CC4)c4cc(F)c(Cl)cc34)cc2)c1C [Compound 157]	
	0.3 µM	CCCC(=O)c1cnn(-c2ccc(NC(=O)c3cn(CC(=O)N4CCN(CCC)CC4)c4ccc(Cl)cc34)cc2)c1C [Compound 156]	
	0.39 µM	CCCC(=O)c1cnn(-c2ccc(NC(=O)c3cn(CC(=O)N4CC(O)C4)c4ccc(Cl)cc34)cc2)c1C [Compound 176]	
0.53 µM		CCCC(=O)c1cnn(-c2ccc(NC(=O)c3cn(CC(=O)NC4CCNC4)c4ccc(C)cc34)cc2)c1C (centres unmarked) [Compound 245]	
	0.55 µM	CCCC(=O)c1cnn(-c2ccc(NC(=O)c3cn(CC(=O)N4CC[C@@H](C(=O)NC5CC5)C4)c4ccc(Cl)cc34)cc2)c1C [Compound 188]	
	1.01 µM	CCCC(=O)c1cnn(-c2ccc(NC(=O)c3cn(CC(=O)N4CCN(Cc5cccs5)CC4)c4ccc(C)cc34)cc2)c1C [Compound 164]	
	0.42 µM	CCCC(=O)c1cnn(-c2ccc(NC(=O)c3cn(CC(=O)N4CCN(CC(O)C(F)(F)F)CC4)c4ccc(Cl)cc34)cc2)c1C (centres unmarked) [Compound 209]	
	0.41 µM	CCCC(=O)c1cnn(-c2ccc(NC(=O)c3cn(CC(=O)N4CCN(CC(=O)N5CCCC5)CC4)c4ccc(Cl)cc34)cc2)c1C [Compound 198]	
0.85 µM		CCCC(=O)c1cnn(-c2ccc(NC(=O)c3cn(CC(=O)N4CC5CCNC5C4)c4ccc(C)cc34)cc2)c1C (centres unmarked) [Compound 246]	
	0.28 µM	CCCC(=O)c1cnn(-c2ccc(NC(=O)c3cn(CC(=O)N4CCN(CCN(C)C(C)=O)CC4)c4ccc(Cl)cc34)cc2)c1C [Compound 211]	
	0.41 µM	CCCC(=O)c1cnn(-c2ccc(NC(=O)c3cn(CC(=O)N4CC(C)NC(C)C4)c4ccc(Cl)cc34)cc2)c1C (centres unmarked) [Compound 159]	
	0.48 µM	CCCC(=O)c1cnn(-c2ccc(NC(=O)c3cn(CC(=O)N(C)CCOC)c4ccc(Cl)cc34)cc2)c1C [Compound 200]	
	0.37 µM	CCCC(=O)c1cnn(-c2ccc(NC(=O)c3cn(CC(=O)N4CCN(Cc5ccccc5OC)CC4)c4ccc(Cl)cc34)cc2)c1C [Compound 168]	
0.32 µM		CCCC(=O)c1cnn(-c2ccc(NC(=O)c3cn(CC(=O)N4CCC(NC)CC4)c4ccc(C)cc34)cc2)c1C [Compound 248]	
	0.25 µM	CCCC(=O)c1cnn(-c2ccc(NC(=O)c3cn(CC(=O)N4CCN(CCNC(C)=O)CC4)c4ccc(Cl)cc34)cc2)c1C [Compound 197]	
0.26 µM		CCCC(=O)c1cnn(-c2ccc(NC(=O)c3cn(CC(=O)N4CC(C)NC(C)C4)c4ccc(C)cc34)cc2)c1C (centres unmarked) [Compound 247]	
0.96 µM		CCCC(=O)c1cnn(-c2ccc(NC(=O)c3cn(CC(=O)N4CCCC(N)C4)c4ccc(C)cc34)cc2)c1C (centres unmarked) [Compound 244]	
	0.17 µM	CCCC(=O)c1cnn(-c2ccc(NC(=O)c3cn(CC(=O)N4CCc5[nH]ncc5C4)c4ccc(Cl)cc34)cc2)c1C [Compound 173]	

The next lines start with the compound.

SMILES	IC50 [1]	IC50 [2]	other results
CCCC(=O)c1cnn(-c2ccc(NC(=O)c3nn(CC(=O)O)c4ccc(C)cc34)cc2)c1C [Compound 24]	37 µM		
CCCC(=O)c1cnn(-c2ccc(NC(=O)c3cn(CC(=O)N4CCN(Cc5ccc(OC)c(F)c5)CC4)c4ccc(Cl)cc34)nn2)c1C [Compound 85]	0.1 µM		
CCCC(=O)c1cnn(-c2ccc(NC(=O)c3cn(CC(=O)N4CCN(CCC)CC4)c4ccc(Cl)cc34)nn2)c1C [Compound 48]	0.14 µM		
CCCC(=O)c1cnn(-c2ccc(NC(=O)c3cn(CC(=O)N4CCN(CCS(C)(=O)=O)CC4)c4ccc(Cl)cc34)cc2)c1C [Compound 148]		0.15 µM	
CCCC(=O)c1cnn(-c2ccc(NC(=O)c3cn(CC(=O)O)c4ccc(F)cc34)cc2)c1C [Compound 18]	36 µM		
CCCC(=O)c1cnn(-c2ccc(NC(=O)c3cn(CC(=O)O)c4cc(C)c(C)cc34)cc2)c1C [Compound 16]	4.6 µM		
CCCC(=O)c1cnn(-c2ccc(NC(=O)c3cn(CC(=O)N4CCOCC4)c4ccc(C)cc34)cc2)c1C [Compound 128]		0.29 µM	
CCCC(=O)c1cnn(-c2ccc(NC(=O)c3cn(CC(=O)O)c4cc(F)c(Cl)cc34)cc2)c1C [Compound 21]	2.8 µM		
CCCC(=O)c1cnn(-c2cnc(NC(=O)c3cn(CC(=O)N4CCN(C)CC4)c4ccc(Cl)cc34)cn2)c1C [Compound 27, N-[5-(4-Butyryl-5-methyl-1H-pyrazol-1-yl)pyrazin-2-yl]-5-chloro-1-[2-(4-methylpiperazin-1-yl)-2-oxoethyl]-1H-indole-3-carboxamide hydrochloride]			IC50 (Rattus norvegicus, Platelet, 0.1 h, read-out: Inhibition of platelet aggregation in vitro (rat blood) in μM): 0.3 µM
CCCC(=O)c1cnn(-c2ccc(NC(=O)c3cn(CC(=O)N4CC(N5CCCCC5)C4)c4ccc(Cl)cc34)nn2)c1C [Compound 86]	0.39 µM		
CCCC(=O)c1cnn(-c2ccc(NC(=O)c3cn(CC(=O)N4CCNC(C)C4)c4ccc(C)cc34)cc2)c1C (centres unmarked) [Compound 242, N-[4-(4-Butyryl-5-methyl-1H-pyrazol-1-yl)phenyl]-5-methyl-1-[2-(3-methylpiperazin-1-yl)-2-oxoethyl]-1H-indole-3-carboxamide hydrochloride]			IC50 (0.1 h, rat platelet-rich plasma, ADP-induced aggregation, area under the curve of absorbance for 6 minutes, read-out: Inhibition of platelet aggregation in vitro (rat blood)): 0.51 µM
CCCC(=O)c1cnn(-c2ccc(NC(=O)c3cn(CC(=O)N4CCN(Cc5noc(C)n5)CC4)c4ccc(Cl)cc34)nn2)c1C [Compound 82]	0.05 µM		
CCCC(=O)c1cnn(-c2ccc(NC(=O)c3cn(CC(=O)N4CC(C)NC(C)C4)c4ccc(Cl)cc34)nn2)c1C (centres unmarked) [Compound 43]	0.12 µM		
CCCC(=O)c1cnn(-c2ccc(NC(=O)c3cn(CC(=O)N(C)CCO)c4cc(C)c(C)cc34)cc2)c1C [Compound 108]		0.98 µM	
CCCC(=O)c1cnn(-c2ccc(NC(=O)c3cn(CC(=O)N4CCN(CCO)CC4)c4ccc(C)cc34)cc2)c1C [Compound 116]		0.26 µM	
CCCC(=O)c1cnn(-c2ccc(NC(=O)c3cn(CC(=O)N4CCN(CC(=O)NC5CC5)CC4)c4ccc(Cl)cc34)nn2)c1C [Compound 81]	0.04 µM		
CCCC(=O)c1cnn(-c2ccc(NC(=O)c3cn(CC(=O)N4CCN(C)CC4)c4cc(C)c(Cl)cc34)cc2)c1C [Compound 113]		0.62 µM	
CCCC(=O)c1cnn(-c2ccc(NC(=O)c3cn(CC(=O)N(C)CCN(C)C)c4ccc(Cl)cc34)nn2)c1C [Compound 97]	0.09 µM		
CCCC(=O)c1cnn(-c2ccc(NC(=O)c3cn(CC(=O)N4CCCN(C)CC4)c4ccc(C)cc34)cc2)c1C [Compound 130]		0.47 µM	
CCCC(=O)c1cnn(-c2ccc(NC(=O)c3cn(CC(=O)N(C)CCOC)c4ccc(Cl)cc34)nn2)c1C [Compound 61]	0.09 µM		
CCCC(=O)c1cnn(-c2ccc(NC(=O)c3cn(CC(=O)N4CCNC(=O)C4)c4ccc(Cl)cc34)nn2)c1C [Compound 64]	0.06 µM		
CCCC(=O)c1cnn(-c2ccc(NC(=O)c3cn(CC(=O)N(C)C)c4ccc(Cl)cc34)nn2)c1C [Compound 36]	0.11 µM		
CCCC(=O)c1cnn(-c2ccc(NC(=O)c3cn(CC(=O)O)c4ccc(N(C)C)cc34)cc2)c1C [Compound 22]	1.2 µM		
CCCC(=O)c1cnn(-c2ccc(NC(=O)c3cn(CC(=O)N4CCN(C)CC4)c4ccc(OC)cc34)cc2)c1C [Compound 136]		0.4 µM	
CCCC(=O)c1cnn(-c2ccc(NC(=O)c3cn(CC(=O)N4CCC(N5CCOCC5)CC4)c4ccc(Cl)cc34)cc2)c1C [Compound 149]		0.41 µM	
